# Results reported in patent US7138361B2, “Herbicidal heterocycles” (E. I. du Pont de Nemours and Company, priority 2000, dated 2006).
# Experiments:
# Type in all cases: in vivo
# [1] = system: barnyardgrass (Echinochloa crus-galli); test: Test C flooded paddy test; details: for Barnyardgrass plant response rating: Flooded Paddy, scale 0 to 100, 0 no effect, 100 complete control; for Plant response rating, Barnyardgrass: flooded paddy test, scale 0 to 100 (0 no effect, 100 complete control)
# Summary of the method: (§1)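 Rice and three paddy weeds were grown to the 2-leaf stage under flooded conditions, then treated and kept in a greenhouse for 12–14 days. Response was rated visually against untreated controls on a 0–100 scale, where 100 is complete control.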
# [2] = system: smallflower flatsedge (Cyperus difformis); test: Test C flooded paddy test; details: for Flatsedge plant response rating: Flooded Paddy, scale 0 to 100, 0 no effect, 100 complete control; for Plant response rating, Flatsedge: flooded paddy test, scale 0 to 100 (0 no effect, 100 complete control)
# Summary of the method: as §1
# [3] = system: duck salad (Heteranthera limosa); test: Test C flooded paddy test; details: for Ducksalad plant response rating: Flooded Paddy, scale 0 to 100, 0 no effect, 100 complete control; for Plant response rating, Ducksalad: flooded paddy test, scale 0 to 100 (0 no effect, 100 complete control)
# Summary of the method: as §1
# rice (Oryza saliva) [4] = test: Test C flooded paddy test; details: for Rice plant response rating: Flooded Paddy, scale 0 to 100, 0 no effect, 100 complete control; for Plant response rating, Rice: flooded paddy test, scale 0 to 100 (0 no effect, 100 complete control)
# Summary of the method: as §1
# [5] = system: lambsquarters (Chenopodium album); test: Test B preemergence
# Summary of the method: (§2)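 Greenhouse test: chemicals are formulated in a surfactant-containing non-phytotoxic solvent and applied either preemergence to planted seeds or postemergence to plants 2 to 18 cm tall. Response is rated visually versus controls after 13 to 15 days, 0 meaning no effect and 100 complete control.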
# corn (Zea mays) [6] = test: Test B preemergence
# Summary of the method: as §2
# [7] = system: barnyardgrass (Echinochloa crus-galli); test: Test B preemergence
# Summary of the method: as §2
# [8] = system: velvetleaf (Abutilon theophrasti); test: Test B preemergence
# Summary of the method: as §2
# [9] = system: giant foxtail (Setaria faberii); test: Test B preemergence
# Summary of the method: as §2
# [10] = system: crabgrass (Digitaria sanguinalis); test: Test B preemergence
# Summary of the method: as §2
# [11] = system: cocklebur (Xanthium strumarium); test: Test B preemergence
# Summary of the method: as §2
# [12] = system: morning glory (Ipomoea hederacea); test: Test B preemergence
# Summary of the method: as §2
# [13] = system: pigweed (Amaranthus retroflexus); test: Test B preemergence
# Summary of the method: as §2
# [14] = system: Surinam grass (Brachiaria decumbens); test: Test B preemergence
# Summary of the method: as §2
# rice (Oryza saliva) [15] = test: Test B preemergence
# Summary of the method: as §2
# [16] = system: blackgrass (Alopecurus myosuroides); test: Test B postemergence; details: Rate 500 g/ha, scale 0 to 100, 0 is no effect, 100 is complete control, 13 to 15 days
# Summary of the method: as §2
# [17] = system: lambsquarters (Chenopodium album); test: Test B postemergence; details: Rate 125 g/ha, scale 0 to 100, 0 no effect, 100 complete control
# Summary of the method: as §2
# corn (Zea mays) [18] = test: Test B postemergence
# Summary of the method: as §2
# [19] = system: barnyardgrass (Echinochloa crus-galli); test: Test B postemergence
# Summary of the method: as §2
# wild oat (Avena fatua) = test: Test B postemergence; details: Rate 125 g/ha, scale 0 to 100, 0 no effect, 100 complete control
# Summary of the method: as §2
# [20] = system: velvetleaf (Abutilon theophrasti); test: Test B postemergence; details: Rate 125 g/ha, scale 0 to 100, 0 no effect, 100 complete control
# Summary of the method: as §2
# [21] = system: wheat (Triticum aestivum); test: Test B postemergence; details: Rate 125 g/ha, scale 0 to 100, 0 no effect, 100 complete control
# Summary of the method: as §2
# [22] = system: giant foxtail (Setaria faberii); test: Test B postemergence; details: Rate 125 g/ha, scale 0 to 100, 0 no effect, 100 complete control
# Summary of the method: as §2
# [23] = system: crabgrass (Digitaria sanguinalis); test: Test B postemergence; details: Rate 125 g/ha, scale 0 to 100, 0 no effect, 100 complete control
# Summary of the method: as §2
# [24] = system: cocklebur (Xanthium strumarium); test: Test B postemergence
# Summary of the method: as §2
# [25] = system: morning glory (Ipomoea hederacea); test: Test B postemergence; details: Rate 125 g/ha, scale 0 to 100, 0 no effect, 100 complete control
# Summary of the method: as §2
# [26] = system: pigweed (Amaranthus retroflexus); test: Test B postemergence; details: Rate 125 g/ha, scale 0 to 100, 0 no effect, 100 complete control
# Summary of the method: as §2
# [27] = system: Surinam grass (Brachiaria decumbens); test: Test B postemergence
# Summary of the method: as §2
# [28] = Preemergence, Rate 500 g/ha, scale 0 to 100, 0 no effect, 100 complete control
# [29] = preemergence, Rate 125 g/ha, scale of 0 to 100 where 0 is no effect and 100 is complete control, 13 to 15 days
# [30] = Rate 125 g/ha, scale 0 to 100, 0 no effect, 100 complete control
# [31] = Rate 500 g/ha, scale 0 to 100, 0 is no effect, 100 is complete control, 13 to 15 days
structure (smiles),measurement,setting,value
CCCOC(=O)c1cccc(N2CCC(n3ccc(C(C)(C)C)n3)C2=O)c1 (stereo not shown) [Compound 123],Barnyardgrass plant response rating,[1]; Rate 250 g/ha,0
same,Barnyardgrass plant response rating,[1]; Rate 500 g/ha,0
same,"Plant response rating, Barnyardgrass",[1]; Rate 62 g/ha,0
same,"Plant response rating, Barnyardgrass",[1]; Rate 125 g/ha,0
same,Flatsedge plant response rating,[2]; Rate 250 g/ha,50
same,Flatsedge plant response rating,[2]; Rate 500 g/ha,90
same,"Plant response rating, Flatsedge",[2]; Rate 62 g/ha,30
same,"Plant response rating, Flatsedge",[2]; Rate 125 g/ha,30
same,Ducksalad plant response rating,[3]; Rate 250 g/ha,60
same,Ducksalad plant response rating,[3]; Rate 500 g/ha,70
same,"Plant response rating, Ducksalad",[3]; Rate 62 g/ha,20
same,"Plant response rating, Ducksalad",[3]; Rate 125 g/ha,20
same,Rice plant response rating,rice (Oryza saliva) [4]; Rate 250 g/ha,0
same,Rice plant response rating,rice (Oryza saliva) [4]; Rate 500 g/ha,0
same,"Plant response rating, Rice",rice (Oryza saliva) [4]; Rate 62 g/ha,0
same,"Plant response rating, Rice",rice (Oryza saliva) [4]; Rate 125 g/ha,0
same,"Plant response rating, Lambsquarters",[5]; [28],60
same,"Plant response rating, Lambsquarters",[5]; [29],0
same,"Plant response rating, Corn",corn (Zea mays) [6]; [28],0
same,"Plant response rating, Corn",corn (Zea mays) [6]; [29],0
same,"Plant response rating, Barnyardgrass",[7]; [28],0
same,"Plant response rating, Barnyardgrass",[7]; [29],0
same,"Plant response rating, Velvetleaf",[8]; [28],0
same,"Plant response rating, Velvetleaf",[8]; [29],0
same,"Plant response rating, Foxtail, Giant",[9]; [28],0
same,"Plant response rating, Foxtail, Giant",[9]; [29],0
same,"Plant response rating, Crabgrass",[10]; [28],60
same,"Plant response rating, Crabgrass",[10]; [29],0
same,"Plant response rating, Cocklebur",[11]; [28],0
same,"Plant response rating, Cocklebur",[11]; [29],0
same,"Plant response rating, Morningglory",[12]; [28],0
same,"Plant response rating, Morningglory",[12]; [29],0
same,"Plant response rating, Pigweed",[13]; [28],70
same,"Plant response rating, Pigweed",[13]; [29],0
same,"Plant response rating, Surinam grass",[14]; [28],0
same,"Plant response rating, Surinam grass",[14]; [29],0
same,"Plant response rating, Rice",rice (Oryza saliva) [15]; [28],0
same,"Plant response rating, Rice",rice (Oryza saliva) [15]; [29],0
same,"Plant response rating, Blackgrass",[16],0
same,"Plant response rating, Lambsquarters",[17],0
same,"Plant response rating, Corn",corn (Zea mays) [18]; [30],0
same,"Plant response rating, Corn",corn (Zea mays) [18]; [31],0
same,"Plant response rating, Barnyardgrass",[19]; [30],0
same,"Plant response rating, Barnyardgrass",[19]; [31],0
same,"Plant response rating, Wild Oat",wild oat (Avena fatua),0
same,"Plant response rating, Velvetleaf",[20],0
same,"Plant response rating, Wheat",[21],0
same,"Plant response rating, Foxtail, Giant",[22],0
same,"Plant response rating, Crabgrass",[23],0
same,"Plant response rating, Cocklebur",[24]; [30],30
same,"Plant response rating, Cocklebur",[24]; [31],80
same,"Plant response rating, Morningglory",[25],0
same,"Plant response rating, Pigweed",[26],0
same,"Plant response rating, Surinam grass",[27]; [30],0
same,"Plant response rating, Surinam grass",[27]; [31],0
